What was measured:
[1] = target: T1, recombinant Btk kinase enzyme (Homo sapiens, UniProt Q06187); experiment: In vitro inhibition of Btk kinase activity (ADP-Glo); format: biochemical; conditions: Table 8; ADP-Glo; read-out: IC50 kinase BTK
T1 construct: purchased SignalChem B10-10H
Description: To assess Btk kinase activity described herein, SignalChem kinase system was used. Btk kinase activity was determined in the reaction between recombinant Btk kinase enzyme (SignalChem #B10-10H) and Poly (4:1 Glu, Tyr) peptide substrate in the presence of the inhibitor.
Staurosporine (Abcam Biochemicals, ab146588) was used as a reference inhibitor and 0.1% DMSO in the reaction buffer—as a negative control. The solution of 0.5 mg/mL peptide substrate and 50 &M ATP in the same buffer were added; the solution was incubated for 180 minutes at 37° C. To detect the amount of ATP taken up during the kinase reaction, the equivalent amount of ADP (from the ADP Glo Detection Kit (Promega, #V9101)) was used according to the protocol. The reaction mixture was equilibrated to room temperature. 25 µL of ADP-Glo Reagent were added into each well; the plate was incubated for 40 minutes. 50 μL of Kinase Detection Reagent were added; the plate was incubated for 30 minutes. The luminescence was measured with multimode plate reader (Tecan Infinite M200Pro, Switzerland). IC50 values were calculated using Magellan 7.2 software (Tecan, Switzerland) approximating experimental points by four-parameter logistic model with the optimization by Levenberg-Marquardt.

[2] = system: DOHH2 (follicular lymphoma); experiment: Antiproliferative activity, DOHH2 cells (Alamar Blue); format: cell-based; conditions: Homo sapiens, DOHH-2, Table 10, 72 h, average of several tests
Description: Antiproliferative activity of BTK inhibitors was measured in cell-based bioassay on B-cells cultures: Mino (mantle cell lymphoma, ATCC® CRL-3000™), Z-138 (mantle cell lymphoma, ATCC® CRL-3001™) and DOHH2 (follicular lymphoma, Creative Bioarray CSC-C0219) using cell viability reagent Alamar Blue (Invitrogen, #DAL 1100). Cells were cultured in 10% FB S-supplemented (HyClone, #SH3008803/Gibco, #16140-071) RPMI-1640 (PanEco, #S330p) for at least 1 passage after thawing, washed with PBS and passaged in 96-well culture plates (Corning, #3599) with growth medium with 10% FBS (HyClone, #SH3008803/Gibco, #16140-071) and antibiotic (50 μg/ml of gentamicin (Biolot, #1.3.16))≈3*10^4 cells in 50 μl of medium per well.
The compounds were dissolved in DMSO and diluted with the assay medium to final concentrations ranging from […]. 150 μl of each diluted compound were then added to each well (final concentration of DMSO was less than 1%) and incubated at 37° C. in an incubator under 5% of CO2 for 72 h. After incubation, 20 μl of Alamar Blue reagent (Invitrogen, #DAL1100) were added to each well. The plates were shaked on an orbital shaker (Biosan, Latvia) and then incubated for 14-16 hours at 37° C. in the incubator.
The number of living cells were estimated, measuring the fluorescence signal at the excitation wavelength (REx) of 540 nm and the emission wavelength (λEm) of 590 nm on a microplate reader (Tecan Infinite M200Pro, Switzerland).
For each compound, IC50 was calculated using Magellan 7.2 software (Tecan, Switzerland) approximating experimental points by four-parameter logistic model with the optimization by Levenberg-Marquardt.

[3] = system: Z-138 (mantle cell lymphoma); experiment: Antiproliferative activity, Z-138 cells (Alamar Blue); format: cell-based; conditions: Homo sapiens, Table 10, 72 h, average of several tests
Outline: (§1)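 After at least one passage post-thaw, cells were seeded at ≈3*10^4 per well in RPMI-1640 containing 10% FBS. They were treated with compound dilutions (DMSO under 1%) for 72 h and then with Alamar Blue for 14-16 h. Living-cell fluorescence at 540/590 nm gave IC50 values through logistic fitting.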

[4] = General cytotoxicity on HepG2 cells (CC50; therapeutic index CC50 HepG2/IC50 Mino); format: cell-based; conditions: human, HepG2 cells (hepatocellular carcinoma); Table 10; 72 hours, Alamar Blue; average of several tests
Outline: (§2)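 Cells seeded at 2*10^4 per well in DMEM, compounds added after 24 h at 200 μM to 4 μM final and incubated 72 h. Viability read with Alamar Blue to derive CC50; therapeutic index is CC50 (HepG2) divided by IC50 (Mino).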

[5] = system: HepG2 cells (hepatocellular carcinoma); experiment: as above; format: cell-based; conditions: Table 10; therapeutic index
Outline: as §2

[6] = system: Mino (mantle cell lymphoma); experiment: Antiproliferative activity, Mino cells (Alamar Blue); format: cell-based; conditions: Homo sapiens, Table 10, 72 h, average of several tests
Outline: as §1

[7] = Permeability through the monolayer of Caco-2 cells; format: in vitro ADME; conditions: human; for Papp A→B at 2 h, 10 μM / Papp B→A at 2 h, 10 μM: 2 h at 37° C.; for efflux ratio at 2 h, 10 μM: read-out: efflux (Papp B-A/Papp A-B)
Excerpt: Assessment of permeability through the monolayer of Caco-2 cells allows to evaluate the ability of the candidate compounds to penetrate through biological membranes by active and passive transport.
Caco-2, the cells of the intestinal epithelium, had been cultured in transwell plate inserts with the filters (with pores of 0.4 μm, BD Falcon with High Density, #353495) for 21 days, and then the integrity of the monolayer were estimated with Lucifer Yellow dye (Sigma-Aldrich, USA) by standard protocol. When setting the A→B transfer, solutions of test substances were added in a buffer with pH 6.5 (Hanks solution, 10 mM HEPES, 15 mM glucose solution) with the concentration of 10 μM into the upper chamber; the lower chamber was filled with a buffer with pH 7.4 (Hanks solution, 10 mM HEPES, 15 mM glucose solution, 1% BSA). When setting B→A transfer, the upper chamber was filled with the buffer with pH 6.5, and solutions of the test substances were added in the buffer with pH 7.4 at the concentration of 10 μM in the lower chamber. Propranolol was used as a control substance (as it has high permeability).
We used gradient elution (1 mL/min flow rate). We determined the areas of peaks corresponding to the compounds. On the basis of peak areas in the calibration standards we determined the concentration of compound in the initial solution and in the samples from the wells of the upper and lower chambers.
Papp, permeability through the cell layer, was calculated using the following formula:
Papp=(C(t)*V)/(C(0)*t*Area), where
Papp is the effective constant of permeability, m/s V is the volume of solution (0.8 ml in A→B test, 0.2 ml in B→A test), ml Area is the surface area of the membrane (0.33 cm^2), cm^2 t is the time of incubation (7200 sec), sec C(0) is the concentration of the initial solution, μM C(t) is the concentration of the solution after 2 hours (the concentration in the sample from the well of the lower chamber in A→B test; the concentration in the sample from the well of the top chamber in B→A test), μM
The value was calculated with the following formula:
efflux=Papp B-A/Papp A-B, where
Papp A-B is the value of the permeability in the direct test (A→B); Papp B-A is the value of the permeability in the backward test in (B→A).

[8] = Stability in human blood plasma; conditions: 10 μM in pooled human blood plasma, incubated 4 hours at 37° C.
Description: To assess the blood plasma stability of the drug candidates, we used pooled human blood plasma taken from ten healthy donors. The initial solution (10 Mm in DMSO) was diluted with pooled blood plasma to 10 μM (test solution). The test solution had been incubated for 4 hours in a dry block heater at 37° C. We determined peak areas of the compounds corresponding to the start of the test (before incubating) and the end of the test (after incubating in a dry block heater at 37° C.) by HPLC using Agilent1200 chromatograph (Agilent, USA) with preliminary protein precipitation with acetonitrile. We used gradient elution (1 mL/min flow rate). We determined amount of substance in the sample in % after incubation.
We evaluated the stability of the compounds.

[9] = Chemical stability in artificial gastric fluid (SGF without enzymes); conditions: 10 μM in SGF without enzymes, pH=1.4, 37° C.

T1 sequence (Q06187 whole entry): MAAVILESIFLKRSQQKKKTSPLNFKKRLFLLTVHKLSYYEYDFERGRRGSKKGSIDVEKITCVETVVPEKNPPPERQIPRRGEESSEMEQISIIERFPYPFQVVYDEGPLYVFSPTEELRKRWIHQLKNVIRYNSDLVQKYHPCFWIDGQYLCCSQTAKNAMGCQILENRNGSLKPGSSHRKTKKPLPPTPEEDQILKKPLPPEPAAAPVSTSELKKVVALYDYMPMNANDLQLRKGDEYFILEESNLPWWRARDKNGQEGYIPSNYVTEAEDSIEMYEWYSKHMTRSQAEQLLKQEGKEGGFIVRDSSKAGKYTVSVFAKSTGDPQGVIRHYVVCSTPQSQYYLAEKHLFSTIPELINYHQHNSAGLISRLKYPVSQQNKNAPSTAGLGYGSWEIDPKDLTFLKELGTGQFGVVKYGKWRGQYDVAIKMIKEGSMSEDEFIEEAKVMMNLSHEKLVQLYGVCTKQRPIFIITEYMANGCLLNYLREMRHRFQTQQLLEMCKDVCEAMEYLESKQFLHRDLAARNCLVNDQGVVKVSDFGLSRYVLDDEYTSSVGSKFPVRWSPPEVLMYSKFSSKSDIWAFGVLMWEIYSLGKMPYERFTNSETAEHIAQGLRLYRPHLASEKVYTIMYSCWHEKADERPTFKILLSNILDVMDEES

SMILES	IC50 [1]	IC50 [2]	IC50 [3]	IC50 [6]	Papp A→B at 2 h, 10 μM [7]	Papp B→A at 2 h, 10 μM [7]	efflux ratio at 2 h, 10 μM [7]	Amount of substance in the sample, % (stability in human blood plasma) [8]	Amount of substance in the sample in % (chemical stability) [9]	CC50 at 72 h [4]	CC50 (HepG2)/IC50 (Mino) [5]
C=CC(=O)N1CCC[C@@H](n2nc(-c3ccc(Oc4ccncc4C#N)cc3)c3cncc(F)c32)C1 [BCD-BTK-217, (R)-4-(4-(1-(1-acryloylpiperidin-3-yl)-7-fluoro-1H-pyrazolo[4,3-c]pyridin-3-yl)phenoxy)nicotinonitrile]		16.1 µM	13.9 µM	17.4 µM	37.3 ×10⁻⁶ cm/s	18.9 ×10⁻⁶ cm/s	0.51	90.8%		40.1 µM	2.31
C=CC(=O)N1CCC[C@@H](n2nc(-c3ccc(C(=O)Nc4ncccc4F)cc3)c3cncc(Cl)c32)C1 [BCD-BTK-226, (R)-4-(1-(1-acryloylpiperidin-3-yl)-7-chloro-1H-pyrazolo[4,3-c]pyridin-3-yl)-N-(3-fluoropyridin-2-yl)benzamide]		8.05 µM	7.24 µM	5.97 µM	12.1 ×10⁻⁶ cm/s	5.5 ×10⁻⁶ cm/s	0.45	84.5%	100%	19 µM	3.19
C=CC(=O)N1CCC[C@@H](n2nc(-c3ccc(C(=O)Nc4ccccn4)cc3)c3cncc(F)c32)C1 [BCD-BTK-243, (R)-4-(1-(1-acryloylpiperidin-3-yl)-7-fluoro-1H-pyrazolo[4,3-c]pyridin-3-yl)-N-(pyridin-2-yl)benzamide]	0.0293 µM								99.6%		
C=CC(=O)N1CCC[C@@H](n2nc(-c3ccc(C(=O)Nc4ccc(F)cn4)cc3)c3cncc(F)c32)C1 [BCD-BTK-244, (R)-4-(1-(1-acryloylpiperidin-3-yl)-7-fluoro-1H-pyrazolo[4,3-c]pyridin-3-yl)-N-(5-fluoropyridin-2-yl)benzamide]	0.0557 µM								100%		
C=CC(=O)N1CCC[C@@H](n2nc(-c3ccc(C(=O)Nc4cc(C(F)(F)CCC)ccn4)cc3)c3cncc(C#N)c32)C1 [BCD-BTK-268, (R)-4-(1-(1-acryloylpiperidin-3-yl)-7-cyano-1H-pyrazolo[4,3-c]pyridin-3-yl)-N-(4-(1,1-difluorobutyl)pyridin-2-yl)benzamide]		26.6 µM	78.3 µM	10.3 µM				91.0%	99.3%	> 100 µM	>9.69
C=CC(=O)N1CC[C@H](n2nc(-c3ccc(C(=O)Nc4ccccn4)cc3)c3cncc(Cl)c32)C1 [BCD-BTK-273, (S)-4-(1-(1-acryloylpyrrolidin-3-yl)-7-chloro-1H-pyrazolo[4,3-c]pyridin-3-yl)-N-(pyridin-2-yl)benzamide]	0.0261 µM								100%		

Now from value to molecule, other results behind:

IC50 [1]	IC50 [2]	IC50 [3]	IC50 [6]	Papp A→B at 2 h, 10 μM [7]	Papp B→A at 2 h, 10 μM [7]	efflux ratio at 2 h, 10 μM [7]	Amount of substance in the sample, % (stability in human blood plasma) [8]	Amount of substance in the sample in % (chemical stability) [9]	SMILES	CC50 at 72 h [4]	CC50 (HepG2)/IC50 (Mino) [5]
0.00628 µM									C=CC(=O)N1CCC[C@@H](n2nc(-c3ccc(Oc4ccncc4)cc3)c3c(N)ncc(C(N)=O)c32)C1 [BCD-BTK-135, (R)-1-(1-acryloylpiperidin-3-yl)-4-amino-3-(4-(pyridin-4-yloxy)phenyl)-1H-pyrazolo[4,3-c]pyridin-7-carboxamide]		
	23 µM	17.3 µM	5.67 µM	19.2 ×10⁻⁶ cm/s	3.55 ×10⁻⁶ cm/s	0.18	94.8%		C=CC(=O)N1CCC[C@@H](n2nc(-c3ccc(Oc4ccncc4)cc3)c3cncc(F)c32)C1 [BCD-BTK-211, (R)-1-(3-(7-fluoro-3-(4-(pyridin-4-yloxy)phenyl)-1H-pyrazolo[4,3-c]pyridin-1-yl)piperidin-1-yl)prop-2-en-1-one]	45.2 µM	7.97
	9.52 µM	12.1 µM	2.14 µM	29.6 ×10⁻⁶ cm/s	8.72 ×10⁻⁶ cm/s	0.29	80.4%		C=CC(=O)N1CCC[C@@H](n2nc(-c3ccc(Oc4cccnc4C#N)cc3)c3cncc(C#N)c32)C1 [BCD-BTK-216, (R)-1-(1-acryloylpiperidin-3-yl)-3-(4-(2-cyanopyridin-3-yloxy)phenyl)-1H-pyrazolo[4,3-c]pyridine-7-carbonitrile]	40.1 µM	18.77
	26.3 µM	26.3 µM	19.4 µM	5.06 ×10⁻⁶ cm/s	6.97 ×10⁻⁶ cm/s	1.38	100.0%	100%	C=CC(=O)N1CCC[C@@H](n2nc(-c3ccc(Oc4cncc(C(N)=O)c4)cc3)c3cncc(Cl)c32)C1 [BCD-BTK-222, 5-(4-{7-chloro-1-[(3R)-1-(prop-2-enoyl)piperidin-3-yl]-1H-pyrazolo[4,3-c]pyridin-3-yl}phenoxy)pyridine-3-carboxamide]	50.2 µM	2.60

Reference: US20190352276A1, “INHIBITORS OF BRUTON'S TYROSINE KINASE” (Joint Stock Company "Biocad", priority 2016, published 2019)
